Measured values reported in patent publication US8946266B2, “Substituted triazole and imidazole derivatives as gamma secretase modulators” (Janssen Pharmaceuticals, Inc., priority 2009, dated 2015).
Like-named read-outs stand apart in the source and are kept apart here.

Legend:
Aβtotal [1] = assay: In vivo efficacy, Method 1: brain soluble Aβtotal lowering 4 h after a single oral dose, ELISA (Table 4a); design: species or system mouse; settings: dose 30 mg/kg oral dosing
Excerpt: (§1) To determine whether acute administration of an Aβ42 lowering agent would reduce Aβ42 levels in vivo, non-transgenic rodents, e.g. mice or rats were used. Alternatively, two to three month old Tg2576 mice expressing APP695 containing the “Swedish” variant can be used or a transgenic mouse model developed by Dr. Fred Van Leuven (K.U. Leuven, Belgium) and co-workers, with neuron-specific expression of a clinical mutant of the human amyloid precursor protein [V717I] (Moechars et al., 1999 J. Biol. Chem. 274, 6483). Young transgenic mice have high levels of Aβ in the brain but no detectable Aβ deposition. At approximately 6-8 months of age, the transgenic mice start to display spontaneous, progressive accumulation of β-amyloid (Aβ) in the brain, eventually resulting in amyloid plaques within the subiculum, hippocampus and cortex. Animals treated with the Aβ42 lowering agent were examined and compared to those untreated or treated with vehicle and brain levels of soluble Aβ42 and total Aβ would be quantitated by standard techniques, for example, using ELISA. Treatment periods varied from hours (h) to days and were adjusted based on the results of the Aβ42 lowering once a time course of onset of effect could be established.
(§2) A typical protocol for measuring Aβ42 lowering in vivo is shown but it is only one of many variations that could be used to optimize the levels of detectable Aβ. For example, Aβ42 lowering compounds were formulated in 20% of Captisol® (a sulfobutyl ether of β-cyclodextrin) in water or 20% hydroxypropyl cyclodextrin. The Aβ42 lowering agents were administered as a single oral dose or by any acceptable route of administration to overnight fasted animals. After 4 h, the animals were sacrificed and Aβ42 levels were analysed.
(§3) Blood was collected by decapitation and exsanguinations in EDTA-treated collection tubes. Blood was centrifuged at 1900 g for 10 minutes (min) at 4° C. and the plasma recovered and flash frozen for later analysis. The brain was removed from the cranium and hindbrain. The cerebellum was removed and the left and right hemisphere were separated. The left hemisphere was stored at −18° C. for quantitative analysis of test compound levels. The right hemisphere was rinsed with phosphate-buffered saline (PBS) buffer and immediately frozen on dry ice and stored at −80° C. until homogenization for biochemical assays.
(§4) Mouse brains were resuspended in 10 volumes of 0.4% DEA (diethylamine)/50 mM NaCl pH 10 (for non-transgenic animals) or 0.1% 3-[(3-cholamidopropyl)-dimethyl-ammonio]-1-propanesulfonate (CHAPS) in tris buffered saline (TBS) (for transgenic animals) containing protease inhibitors (Roche-11873580001 or 04693159001) per gram of tissue, e.g. for 0.158 g brain, add 1.58 ml of 0.4% DEA. All samples were sonicated for 30 seconds on ice at 20% power output (pulse mode). Homogenates were centrifuged at 221.300×g for 50 min. The resulting high speed supernatants were then transferred to fresh tubes and were optionally further purified before the next step. A portion of the supernatant was neutralized with 10% 0.5 M Tris-HCl and this was used to quantify Aβtotal.
To quantify the amount of Aβ42 in the soluble fraction of the brain homogenates, commercially available Enzyme-Linked-Immunosorbent-Assay (ELISA) kits were used (e.g. Innotest® β-Amyloid(1-42), Innogenetics N.V., Ghent, Belgium). The Aβ42 ELISA was performed using the plate provided with the kit only. Briefly, the standards (a dilution of synthetic Aβ1-42) were prepared in 1.5 ml Eppendorf tube in Ultraculture, with final concentrations ranging from 25000 to 1.5 pg/ml. Samples, standards and blanks (60 μl) were added to the anti-Aβ42-coated plate (the capture antibody selectively recognizes the C-terminal end of the antigen). The plate was allowed to incubate overnight at 4° C. in order to allow formation of the antibody-amyloid complex. […]

Aβ42 [2] = assay: In vivo efficacy, Method 1: brain soluble Aβ42 lowering 4 h after a single oral dose, ELISA (Table 4a); design: species or system mouse; settings: dose 30 mg/kg oral dosing
Excerpt: as §1, §2, §3, §4
The obtained supernatants were purified with Water Oasis HLB reverse phase columns (Waters Corp., Milford, Mass.) to remove non-specific immunoreactive material from the brain lysates prior subsequent Aβ detection. Using a vacuum manifold, all solutions were passed through the columns at a rate of approximately 1 ml per min, so the vacuum pressure was adjusted accordingly throughout the procedure. Columns were preconditioned with 1 ml of 100% MeOH, before equilibration with 1 ml of H2O, Non-neutralized brain lysates were loaded onto the columns. The loaded samples were then washed twice with the first wash performed with 1 ml of 5% MeOH, and the second wash with 1 ml of 30% MeOH. Finally, the Aβ was eluted from the columns and into 100×30 mm glass tubes, with a solution of 90% MeOH with 2% NH4OH. […]

Aβ42 [3] = assay: γ-secretase-modulating activity, Method 2: Aβ42 Alphalisa in supernatant of SKNBE2 cells carrying APP 695-wild type (Table 3b); type: cell-based; settings: overnight
In short: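 SKNBE2 cells expressing wild-type APP695 were incubated overnight at 37° C. with test compound. Secreted Aβ42 was then measured by AlphaLISA, using a C-terminal Aβ42 antibody paired with an N-terminal Aβ antibody. IC50 came from a 4-parameter fit of percent of compound-free control.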

Aβtotal [4] = assay: γ-secretase-modulating activity, Method 2: Aβtotal Alphalisa in supernatant of SKNBE2 cells carrying APP 695-wild type (Table 3b); type: cell-based; settings: overnight, read-out: IC50 Aβtot
In short: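 SKNBE2 cells expressing wild-type APP 695 were incubated overnight at 37 °C, 5% CO2 with test compound at a range of concentrations. Aβtotal in supernatant was measured by AlphaLISA sandwich (N-terminal JRF/AβN/25 acceptor, biotinylated mid-region 4G8 donor); IC50 from 4-parameter fit of percent control versus log concentration.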

| IC50 (Aβ42 [3]) | IC50 (Aβtotal [4]) | IC50 (Aβ42 [3]; Homo sapiens) | IC50 (Aβtotal [4]; Homo sapiens) | SMILES | Aβtotal (% Ctrl) _Mean (Aβtotal [1]) | Aβ42 (% Ctrl) _Mean (Aβ42 [2]) |
| --- | --- | --- | --- | --- | --- | --- |
| 135 nM | > 10000 nM |  |  | COc1nc(-c2nc(-c3cccc(C(F)(F)F)c3)n(C(C)C)n2)ccc1-n1cnc(C)c1.Cl.Cl [Compound 68] | −3 % Ctrl | 29 % Ctrl |
| 191 nM | 6760 nM |  |  | COc1cc(-c2nc(C(C)C)n(-c3cccc(C(F)(F)F)c3)n2)ccc1-n1cnc(C)c1.Cl [Compound 32] | 2 % Ctrl | 6 % Ctrl |
|  |  | 105 nM | 7940 nM | COc1cc(-c2nc(-c3cccc(C(F)(F)F)c3)n(C(C)C)n2)ccc1-n1cnc(C)c1 [Compound 39] | 0 % Ctrl | 17 % Ctrl |
